Data set [1] has as its system position 37 of GFP. The data set is described as follows: Fidelity of unnatural amino acid incorporation by mass spectrometry (nano-RP LC/MS/MS, ESI TOF-MS). The conditions noted are these: nano-RP LC/MS/MS of tryptic fragments, mutant GFP from T-REx CHO cells. An excerpt:
To further characterize GFP-pMpa, the mutant protein was expressed in T-REx™ CHO cells transiently transfected with both pSWAN-pMpaRS and pSWAN-GFP37TAG. The protein was purified using an anti-myc antibody agarose column and then separated by SDS-PAGE. The GFP-pMpa band from the SDS-PAGE gel was digested with trypsin and analyzed by nanoscale reversed-phase liquid chromatography/mass spectrometry/mass spectrometry (nano-RP LC/MS/MS). In parallel, wild type GFP was purified from cells transfected with pcDNA4-GFP and subjected to the same analysis.
Proteolysis of affinity purified proteins (performed for wild-type and pBpa samples) was carried out by overnight incubation of proteins at 37° C. with sequencing-grade modified trypsin (Promega) using a substrate/enzyme ratio of 10:1 (wt/wt) based on the estimated protein concentration in 100 mM triethylammonium bicarbonate buffer (pH 8.5). In-gel digestions (performed for pMpa, pAzpa, pApa, and pPpa samples) were performed according to a modified EMBL procedure (see the website for EMBL, Heidelberg, Germany, Bioanalytical Research Group). Briefly, gel slices were excised to approximately 1 mm×1 mm cubes, washed for 5 minutes with water, 15 minutes with acetonitrile, and dried in a vacuum centrifuge before being rehydrated at 0° C. for 30 minutes with 12.5 ng/μl of sequencing-grade modified trypsin in 50 mM triethylammonium bicarbonate buffer (pH 8.5). Excess buffer was removed and 20 μl of 50 mM triethylammonium bicarbonate buffer (pH 8.5) was added to the gel slices before incubating at 37° C. overnight. Peptides were extracted from the gel slices as described in the protocol.
(§1) Nano-RP LC/MS/MS was performed with an HPLC pump, autosampler (Agilent Technologies, Palo Alto, Calif.), and an LTQ Orbitrap hybrid mass spectrometer (ThermoElectron, San Jose, Calif.). Tryptic digests were loaded with a pressure bomb onto a 75 μm i.d. precolumn packed with 4 cm of 5-μm Monitor C18 particles (Column Engineering, Ontario, Calif.) at a flow rate of approximately 2 μl/min. The precolumn was then connected to the HPLC pump and after several minutes of washing with solvent A the analytical column with integrated emitter tip (360 μm O.D.×75 μm i.d; 10 cm of 5 μM C18, ˜5-μm tip) was connected in series. The chromatographic profile was from 100% solvent A (0.1% aqueous acetic acid) to 50% solvent B (0.1% acetic acid in acetonitrile) in 40 min; the flow rate through the analytical column was ca. 100 nl/min.
For data-dependent experiments, the mass spectrometer was programmed to first record a high-resolution Orbitrap scan then a full-scan ion trap spectrum (m/z 500-2,000). This was followed by 10 data-dependent MS/MS scans (relative collision energy=35%; 3-Da isolation window) triggered of the ion-trap scan and finally two targeted MS/MS scans. The first targeted MS/MS scan was set to isolate and fragment the doubly charged precursor ion of the predicted unnatural amino acid modified peptide
at m/z 752.3. The raw data were searched against the MSDB database using MASCOT (Matrixscience, London, UK) for protein identification and to find the scans containing the target peptides with the unnatural amino acids as variable modification. To estimate fidelity at Y*37 of GFP-pMpa, single ion chromatograms (doubly charged precursor ions at m/z 752.3 for the wt and 759.3 for pMpa) and selected ion chromatograms (y9, y11, and y12) were integrated using the Xcalibur software package (ThermoElectron, San Jose, Calif.).
Intact protein mass spectra were acquired on an automated LC/MS system (Waters, Milford, Mass.) consisting of a capillary LC with auto-sampler and a QTOF2 mass spectrometer. GFP-pMpa (0.1 mg/ml) was loaded onto a reversed-phase protein Captrap (Michrom Bioresources, Auburn, Calif.) for desalting with 0.1% acetic acid in water and eluted with 80% acetonitrile/0.1% acetic acid at 5 μl/min into the ESI source of the mass spectrometer. […]

For data set [2], the system named is T-REx™ CHO cells. The data set is described as follows: Yield of purified mutant GFP containing unnatural amino acid (pSWAN two-plasmid system). The data set is classed as cell-based, Chinese hamster. Particulars: pMpa 10 mM, pApa 10 mM, pBpa 1 mM, pAzpa 5 mM, pPpa 1 mM in media, anti-myc column purified. An excerpt:
The pMpaRS gene was inserted directly after the non-regulated CMV promoter for efficient and continuous expression of pMpaRS. Another plasmid (pSWAN-GFP37TAG in FIG. 4B) containing both three tandem repeats of the BstRNACUA^Tyr gene and the GFP37TAG gene was also constructed. The gene encoding GFP37TAG was inserted after a Tet-regulated CMV promoter to minimize potential read-through of the nonsense amber codon caused by endogenous amber suppression in mammalian cells. These two plasmids were then assayed for their suppression efficiency. Because both plasmids contain three tandem repeats of the BstRNACUA^Tyr gene, varying the ratio of the two plasmids to increase the suppression level is not expected to change the total amount of the BstRNACUA^Tyr gene transfected into cells. Under optimized transfection conditions (0.5 μg of pSWAN-pMpaRS and 2.5 μg pSWAN-GFP37TAG per 2×10^6 cells), the suppression level is roughly two-fold higher than that using the three plasmids pUC18-3BstRNACUA^Tyr, pcDNA4-pMpaRS, and pcDNA4-GFP37TAG (the suppression level was determined by the number of fluorescent cells). Cells were grown for 1-2 days after induction and kept viable before harvesting. The yield of mutant GFP containing pMpa (GFP-pMpa) was also quantified. In the presence of 10 mM pMpa in the growth media, 1 μg of mutant GFP can be obtained from 2×10^7 adhesive T-REx™ CHO cells.
Transient transfection of T-REx™ CHO and 293 cells with the pSWAN-EcTyrRS variants and pSWAN-GFP37TAG (0.5 μg of pSWAN-EcTyrRS variant and 2.5 μg of pSWAN-GFP37TAG per 2×10^6 cells) all afforded roughly two-fold higher suppression levels than for the three plasmids pUC18-3BstRNACUA^Tyr, pcDNA4-EcTyrRS variant, and pcDNA4-GFP37TAG (with the exception of the pIpa specific variant). Mutant GFPs containing pApa, pBpa, pAzpa or pPpa were also expressed in T-REx™ CHO cells transfected with the pSWAN-EcTyrRS variants and pSWAN-GFP37TAG and grown in media containing the corresponding unnatural amino acid (pApa, 10 mM; pBpa, 1 mM; pAzpa, 5 mM; or pPpa, 1 mM) for 1-2 days, and purified using an anti-myc antibody column. The yields of the mutant proteins containing pApa and pAzpa were close to that for pMpa (˜1 μg per 2×10^7 cells), and the yields of mutant proteins containing pBpa and pPpa were somewhat lower (˜0.7 μg per 2×10^7 cells). Because the expression levels of EcTyrRS variants in T-REx™ CHO cells are similar, the lower yield of the mutant proteins containing pBpa and pPpa may be due to the low concentrations of unnatural amino acids in the media.
pSWAN-EcTyrRS variants and pSWAN-GFP37TAG were used to express mutant GFPs containing unnatural amino acids. T-REx™ CHO cells (Invitrogen™) were grown in 75 cm^2 tissue culture flasks (BD Biosciences) to 80-90% confluency and transfected with 2 μg of pSWAN-EcTyrRS and 10 μg pSWAN-GFP37TAG using […] FuGENE® 6. After overnight incubation, the media were changed to the fresh media containing the unnatural amino acid (pMpa, 10 mM; pApa, 10 mM; pBpa, 1 mM; pAzpa, 5 mM; and pPpa, 1 mM) and 1 μg/ml tetracycline. Cells were then grown for 1-2 days at 37° C. before harvesting, and then lysed with RIPA lysis buffer. The supernatant from the cell lysate was dialyzed against and equilibrated with PBS buffer before loading onto an anti-myc antibody agarose column (Sigma). The column was washed with 15 column volumes of PBS buffer and then eluted with 0.1 M ammonium hydroxide. The purified proteins were neutralized with 0.1 M acetic acid and analyzed by SDS-PAGE. […]

Data set [3] is described as follows: Decay of azido amino acid seen in tandem MS of mutant GFP. In kind it is physicochemical. Particulars: mutant GFP containing pAzpa; azido group chemically reactive and photo-unstable. The protocol:
The mutant GFP containing pAzpa was only weakly detectable. […] The data from all five mutant proteins indicate the high selectivity and fidelity of the incorporation of unnatural amino acids.
as §1

In data set [4] the test system is Invitrogen™ T-REx™ 293 cells. Description: Amber suppression of GFP37TAG: full-length GFP expression by Western blot in T-REx 293 cells. The data set is classed as cell-based, human. Particulars: BstRNACUA^Tyr + EcTyrRS variant, unnatural amino acid in media (plpa 8 mM), 48 hours. How it is done:
(§2) The ability of the six EcTyrRS variants together with BstRNACUA^Tyr to suppress the amber codon in GFP37TAG was then tested in the presence and absence of unnatural amino acids in the growth media. Transient transfection of cells with plasmids was carried out as described for wild type EcTyrRS. Six hours after transfection, the media were replaced by the fresh media containing 1 μg/ml tetracycline and supplemented with the corresponding unnatural amino acid (pMpa, 10 mM; pApa, 10 mM; pBpa, 1 mM; plpa, 8 mM; pAzpa, 5 mM; or pPpa, 1 mM). Cells were then grown 24 hours for T-REx™ CHO cell lines and 48 hours for T-REx™ 293 cell lines before harvesting. In both T-REx™ CHO and 293 cells, the expression of full length GFP37TAG was dependent upon the presence of unnatural amino acids in the growth media as indicated in FIG. 2 and FIG. 3. […]
(§3) For Western blot analysis, harvested cells were lysed in RIPA buffer (Upstate Biotechnology/Millipore) with a 1:100 dilution of protease inhibitor cocktail (Sigma). […] Chemiluminescence was then detected with PIERCE ECL Western Blotting substrate. For T-REx™ 293 cells, the membranes were probed with anti-His-HRP (Invitrogen™; 1:5000 dilution) and then detected with PIERCE ECL Western Blotting substrate.
For orientation: A western blot detects proteins with antibodies after separation by electrophoresis.

Data set [5] deals with Invitrogen™ T-REx™ CHO cells. Description: Amber suppression of GFP37TAG: full-length GFP expression by Western blot in T-REx CHO cells. The data set is classed as cell-based, Chinese hamster. The conditions noted are these: BstRNACUA^Tyr + EcTyrRS variant, unnatural amino acid in media (plpa 8 mM), 24 hours. How it is done:
as §2, §3

In data set [6] the test system is T-REx™ 293 cells. Description: Cellular toxicity of unnatural amino acid in growth media. Particulars: 8 mM in growth media. The data set is classed as cell-based.
Data set [7] concerns mammalian cells. Description: Cellular toxicity of heterologous synthetase expression. In kind it is cell-based. The conditions noted are these: under the growth conditions used.

As to `[N-]=[N+]=Nc1ccc(C[C@H](N)C(=O)O)cc1` [pAzpa, p-azidophenylalanine], in data set [1], the “wild type peptide signals in tandem MS of mutant GFP sample” value was “No wild type signals could be detected”. The “yield of mutant GFP containing the unnatural amino acid” value in data set [2] is about 1 μg per 2×10^7 cells. In addition, the “decay of the amino acid in mutant GFP (tandem MS)” value in data set [3] was “Most of pAzpa decays to pAmpa”.
In the case of `N[C@@H](Cc1ccc(I)cc1)C(=O)O` [plpa, p-iodophenylalanine], the “expression of full length GFP37TAG” value in data set [4] is “no GFP expression”; in data set [5] it was “low expression level”. The “time until cells die (cellular toxicity)” value in data set [6] stood at 6 h.

B1: pMpaRS: EcTyrRS variant Y37V/D182S/F183M that charges BstRNACUA^Tyr with pMpa (protein, UniProt P0AGJ9 2-424, looked up, variant Y37V D182S F183M)
Tyrosine--tRNA ligase: ASSNLIKQLQERGLVAQVTDEEALAERLAQGPIALVCGFDPTADSLHLGHLVPLLCLKRFQQAGHKPVALVGGATGLIGDPSFKAAERKLNTEETVQEWVDKIRKQVAPFLDFDCGENSAIAANNYDWFGNMNVLTFLRDIGKHFSVNQMINKEAVKQRLNREDQGISFTEFSYNLLQGYSMACLNKQYGVVLQIGGSDQWGNITSGIDLTRRLHQNQVFGLTVPLITKADGTKFGKTEGGAVWLDPKKTSPYKFYQFWINTADADVYRFLKFFTFMSIEEINALEEEDKNSGKAPRAQYVLAEQVTRLVHGEEGLQAAKRITECLFSGSLSALSEADFEQLAQDGVPMVEMEKGADLMQALVDSELQPSRGQARKTIASNAITINGEKQSDPEYFFKEEDRLFGRFTLLRRGKKNYCLICWK
For the molecule B1, the “cellular toxicity of heterologous expression” value in data set [7] was “did not show any apparent cellular toxicity”.

(Values after patent US20080166766A1, “Genetic incorporation of unnatural amino acids into proteins in mammalian cells” (The Scripps Research Institute, priority 2006, published 2008).)
